Source: paper PMC8480782, “Efficient Dimerization Disruption of Leishmania infantum Trypanothione Reductase by Triazole-phenyl-thiazoles” (Journal of Medicinal Chemistry, 2021)
Where two headings read alike, the source gives them in different places.

How the values were obtained:
TcoTryR = target: T1, TcoTryR (Trypanosoma congolense, UniProt P13110); test: TryR oxidoreductase activity, DTNB-coupled assay (TcoTryR); format: biochemical
T1 construct: HIS; made in house; host or cells: E. coli
Excerpt: (§1) The DNA coding sequences for Homo sapiens GR, T. brucei TryR, and T. congolense TryR were polymerase chain reaction (PCR)-amplified and cloned in the pRSETA plasmid. The DNA coding for hGR (transcript variant 1; NCBI Reference Sequence: NM_000637.5) was purchased from GeneScript. Genomic DNA from T. congolense parasites was kindly provided by Dr. Stefan Magez (University of Vrije, Brussels). Genomic DNA from the T. brucei S16 cell line was kindly provided by José M. Pérez-Victoria. Instituto de Parasitología y Biomedicina “López—Neyra” CSIC. HIS-tagged recombinant T. brucei and T. congolense TryRs (TbTryR and TcoTryR, respectively) were purified from E. coli as already explained for LiTryR.
(§2) TryR oxidoreductase activity was determined spectrophotometrically using a modified version of the DTNB-coupled assay described by Hamilton et al.[52] Briefly, reactions were carried out at 26 °C in 250 μL of N-(2-hydroxyethyl)piperazine-N′-ethanesulfonic acid (HEPES) buffer (pH 7.5, 40 mM) containing ethylenediaminetetraacetic acid (EDTA) (1 mM), NADP^+ (30 μM), DTNB (25 μM), TS2 (1 μM), NADPH (150 μM), glycerol (0.02%), DMSO (1.75%), and recombinant TryR (7 nM). […] Reactions were started by addition of a mixture of NADPH and TS2.
(§3) TryR oxidoreductase activity was monitored at 26 °C by an increase in absorbance at 412 nm in an EnSpire Multimode Plate Reader (PerkinElmer, Waltham, MA). […] (TNB) concentration was obtained by multiplying the absorbance values by 100 (50 μM TNB generates 0.5 arbitrary units of absorbance at 412 nm). In this DTNB-coupled assay, one molecule of T(SH)2 reduces one molecule of DTNB, producing two TNB molecules. All of the assays were conducted in at least three independent experiments. Data were analyzed using a nonlinear regression model with GraFit 6 software (Erithacus, Horley, Surrey, U.K.).

TbTryR = target: T2, TbTryR (Trypanosoma brucei brucei, UniProt P39051); test: TryR oxidoreductase activity, DTNB-coupled assay (TbTryR); format: biochemical
T2 construct: HIS; made in house; host or cells: E. coli
Excerpt: as §1, §2, §3

[1] = target: T3, human glutathione-disulfide reductase (hGR) (Homo sapiens, UniProt P00390); test: hGR oxidoreductase activity, DTNB-coupled assay; format: biochemical
T3 construct: HIS (vector pRSETA); made in house
T3 sequence (P00390 44-522): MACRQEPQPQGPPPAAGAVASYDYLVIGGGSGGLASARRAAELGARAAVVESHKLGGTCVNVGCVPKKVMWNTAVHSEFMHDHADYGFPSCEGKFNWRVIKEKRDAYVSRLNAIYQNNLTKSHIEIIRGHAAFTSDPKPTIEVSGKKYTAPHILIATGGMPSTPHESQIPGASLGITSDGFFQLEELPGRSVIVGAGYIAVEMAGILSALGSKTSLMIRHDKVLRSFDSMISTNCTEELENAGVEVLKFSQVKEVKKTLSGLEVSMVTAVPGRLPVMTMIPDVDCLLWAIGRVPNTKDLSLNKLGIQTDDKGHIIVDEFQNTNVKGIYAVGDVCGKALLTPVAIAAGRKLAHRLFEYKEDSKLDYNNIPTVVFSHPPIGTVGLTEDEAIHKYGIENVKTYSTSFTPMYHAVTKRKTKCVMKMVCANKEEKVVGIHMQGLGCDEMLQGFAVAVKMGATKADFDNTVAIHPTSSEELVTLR
Excerpt: as §1
hGR oxidoreductase activity was determined spectrophotometrically using a DTNB-coupled assay. Briefly, reactions were carried out at 37 °C in 250 μL of HEPES buffer (pH 7.5, 40 mM) containing EDTA (1 mM), NADP^+, (60 μM), DTNB (150 μM), oxidized glutathione (50 μM), NADPH (300 μM), glycerol (0.02%), DMSO (1.75%), and recombinant hGR (7 nM). […] TNB concentration was obtained by multiplying the absorbance values by 100 (50 μM TNB generates 0.5 arbitrary units of absorbance at 412 nm). All of the assays were conducted in at least three independent experiments. Data were analyzed using a nonlinear regression model with GraFit 6 software (Erithacus, Horley, Surrey, U.K.).

[2] = Cytotoxicity in THP-1 monocyte-derived macrophages (LDH activity); format: cell-based, human; details: human; 75 μM (maximum concentration assayed); read-out: Cell viability of amastigote-infected THP-1 monocyte-derived macrophages at 75 μM
Procedure: THP-1 cells were grown in RPMI-1640 medium (Gibco, Leiden, The Netherlands) supplemented with 10% heat-inactivated FCS, antibiotics, 10 mM HEPES, 2 mM glutamine, and 1 mM sodium pyruvate, pH 7.2, at 37 °C and 5% CO2.
THP-1 monocytes were seeded in a 48-well plate at a concentration of 5 × 10^5 cells/mL (250 μL/well) in RPMI complete medium supplemented with phorbol 12-myristate 13-acetate (PMA) (100 ng/mL). Differentiation of THP-1 monocytes to macrophages was allowed for 24 h at 37 °C and 5% CO2. THP-1-derived macrophages were infected with GFP-expressing axenic amastigotes at 5 × 10^6 parasites/mL in RPMI complete medium for 24 h (250 μL/well). Extracellular amastigotes were washed twice with PBS. The remaining extracellular parasites were challenged for 24 h with THP-1 medium supplemented with 10% horse serum (Gibco) instead of FCS. Cells were washed twice with PBS, and treatments were performed in 250 μL of fresh RPMI medium supplemented with 10% horse serum for 72 h at 37 °C and 5% CO2. Afterward, treatments were removed by two PBS washes. Lysis of infected cells was performed with 120 μL of SDS 0.005% (w/v) in PBS. After a 30 min incubation at 37 °C, lysis was stopped by adding RPMI complete medium with PI at 20 μg/mL (120 μL/well). The lysates were transferred to a 96-well plate (200 μL/well), and the GFP^+ amastigotes extracted from the infected cells were acquired by a Beckman Coulter FC500 flow cytometer. Each sample (100 μL) was acquired for 20 s.
Cytotoxicity of THP-1 infected macrophages was determined using an in-house developed lactate dehydrogenase (LDH) activity assay. LDH activity assays from the remaining cell lysates (100 μL/well) were carried out at 37 °C in 250 μL of Tris/HCl buffer (pH 8.9, 50 mM) containing DL-lactate (840 mM), NAD^+ (450 μM), 1-methoxyphenazine methosulfate (45 μM), and nitro blue tetrazolium chloride (40 μM). The color intensity of the generated formazan dye was monitored at 570 nm using an EnSpire Multimode Plate Reader (PerkinElmer, Waltham, MA). CC50 values were calculated using a nonlinear regression model with GraFit 6 software (Erithacus, Horley, Surrey, U.K.).

[3] = read-out: IC50, oxidoreductase activity of TbTryR

T2 sequence (P39051 whole entry): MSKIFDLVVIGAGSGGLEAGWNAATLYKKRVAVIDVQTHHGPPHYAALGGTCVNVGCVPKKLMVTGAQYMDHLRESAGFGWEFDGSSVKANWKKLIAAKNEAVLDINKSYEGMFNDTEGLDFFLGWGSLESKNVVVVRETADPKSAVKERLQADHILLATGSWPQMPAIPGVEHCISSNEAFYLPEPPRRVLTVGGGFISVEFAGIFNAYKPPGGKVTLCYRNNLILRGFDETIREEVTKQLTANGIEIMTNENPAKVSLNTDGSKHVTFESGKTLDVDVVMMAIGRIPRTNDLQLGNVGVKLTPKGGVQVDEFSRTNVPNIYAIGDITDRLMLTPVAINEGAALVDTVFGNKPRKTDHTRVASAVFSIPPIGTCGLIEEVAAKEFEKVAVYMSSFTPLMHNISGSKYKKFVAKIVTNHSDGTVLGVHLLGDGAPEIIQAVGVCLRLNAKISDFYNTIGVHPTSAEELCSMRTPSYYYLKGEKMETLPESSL
T1 sequence (P13110 whole entry): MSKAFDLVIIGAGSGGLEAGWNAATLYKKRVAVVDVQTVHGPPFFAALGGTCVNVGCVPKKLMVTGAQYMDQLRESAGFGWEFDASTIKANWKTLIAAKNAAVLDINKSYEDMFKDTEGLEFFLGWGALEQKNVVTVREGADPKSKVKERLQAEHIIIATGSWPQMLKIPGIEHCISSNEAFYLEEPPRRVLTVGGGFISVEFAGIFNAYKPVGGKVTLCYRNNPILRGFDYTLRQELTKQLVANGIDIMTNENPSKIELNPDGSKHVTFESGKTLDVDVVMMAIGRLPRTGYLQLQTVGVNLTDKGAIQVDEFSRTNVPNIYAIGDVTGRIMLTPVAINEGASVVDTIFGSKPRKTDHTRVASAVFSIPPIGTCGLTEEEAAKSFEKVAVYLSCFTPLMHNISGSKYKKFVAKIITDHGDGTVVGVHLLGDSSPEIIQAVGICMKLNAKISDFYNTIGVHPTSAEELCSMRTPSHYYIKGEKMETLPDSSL

SMILES	IC50 (TcoTryR) [µM]	IC50 (TbTryR; [3]) [µM]	inhibitory activity against hGR [1]	viability at 72 h, 75 µM [2] [%]	IC50 (TbTryR) [µM]
NCCCCc1cn(-c2ccc(-c3nc(-c4ccccc4)cs3)c(OCCN3CCNC3=O)c2)nn1.O=C(O)C(F)(F)F [12n]	9.3 ± 0.8	12.5 ± 1.9	none of these compounds showed any inhibitory activity		
NCCCCc1cn(-c2ccc(-c3nc(-c4ccc(Oc5ccccc5)cc4)c(-c4ccccc4)s3)c(OCCN3CCNC3=O)c2)nn1.O=C(O)C(F)(F)F [19c, 1-(2-(5-(4-(4-Ammoniobutyl)-1H-1,2,3-triazol-1-yl)-2-(4-([4-phenyloxyphenyl]-1-yl)-5-phenylthiazol-2-yl)phenoxy)ethyl)imidazolidin-2-one 2,2,2-Trifluoroacetate]				63	
NCCCCc1cn(-c2ccc(-c3nc(CCc4ccc5ccccc5c4)cs3)c(OCCN3CCNC3=O)c2)nn1.O=C(O)C(F)(F)F [12b, 1-(2-(5-(4-(4-Ammoniumbutyl)-1H-1,2,3-triazol-1-yl)-2-(4-(2-(naphthalen-2-yl)ethyl)thiazol-2-yl)phenoxy)ethyl)imidazolidin-2-one 2,2,2-Trifluoroacetate]	4.8 ± 1.9	9.7 ± 2.1			
NCCCCc1cn(-c2ccc(-c3nc(-c4ccccc4)c(-c4ccccc4)s3)c(OCCN3CCNC3=O)c2)nn1.O=C(O)C(F)(F)F [19a, 1-(2-(5-(4-(4-Ammoniobutyl)-1H-1,2,3-triazol-1-yl)-2-(4,5-diphenylthiazol-2-yl)phenoxy)ethyl)imidazolidin-2-one 2,2,2-Trifluoroacetate]	5.6 ± 0.8	7.3 ± 0.6	none of these compounds showed any inhibitory activity		
NCCCCc1cn(-c2ccc(-c3nc(CCc4ccc(-c5ccccc5)cc4)cs3)c(OCCN3CCNC3=O)c2)nn1.O=C(O)C(F)(F)F [12c, 1-(2-(2-(4-(2-([1,1′-Biphenyl]-4-yl)ethyl)thiazol-2-yl)-5-(4-(4-ammoniumbutyl)-1H-1,2,3-triazol-1-yl)phenoxy)ethyl)imidazolidin-2-one 2,2,2-Trifluoroacetate]	4.8 ± 1.8	10 ± 2.5		100	
NCCCCc1cn(-c2ccc(-c3nc(CCc4ccc5c(c4)CCO5)cs3)c(OCCN3CCNC3=O)c2)nn1.O=C(O)C(F)(F)F [12r]	10.1 ± 1.4		none of these compounds showed any inhibitory activity		15 ± 2.9
NCCCCc1cn(-c2ccc(-c3nc(CCc4ccc5c(c4)CCCN5)cs3)c(OCCN3CCNC3=O)c2)nn1.O=C(O)C(F)(F)F.O=C(O)C(F)(F)F [12q]				67	
NCCCc1cn(-c2ccc(-c3nc(CCc4ccc(-c5ccccc5)cc4)cs3)c(OCCN3CCNC3=O)c2)nn1.O=C(O)C(F)(F)F [12i]				100	
NCCCCc1cn(-c2ccc(-c3nc(-c4cccc(-c5csc(-c6ccc(-n7cc(CCCCN)nn7)cc6OCCN6CCNC6=O)n5)c4)cs3)c(OCCN3CCNC3=O)c2)nn1.O=C(O)C(F)(F)F.O=C(O)C(F)(F)F [compound 22, 1,1′-((((1,3-Phenylenebis(thiazole-4,2-diyl))bis(5-(4-(4-ammoniobutyl)-1H-1,2,3-triazol-1-yl)-2,1-phenylene))bis(oxy))bis(ethane-2,1-diyl))bis(imidazolidin-2-one)bis(2,2,2-trifluoroacetate)]	0.5 ± 0.1	1 ± 0.3			
